Assay results published in US11053204B2, “Pyrimidinyloxy benzene derivatives as herbicides” (FMC Corporation, priority 2015, dated 2021).

How the values were obtained:
Type in all cases: in vivo
[1] = tested on: nutsedge, yellow (yellow nutsedge, Cyperus esculentus); experiment: Test C postemergence, plant response rating; conditions: Cyperus, post-emergence
Description: (§1) Seeds of plant species selected from blackgrass (Alopecurus myosuroides), ryegrass, Italian (Italian ryegrass, Lolium multiflorum), wheat (winter wheat, Triticum aestivum), galium (catchweed bedstraw, Galium aparine), corn (Zea mays), crabgrass, large (large crabgrass, Digitaria sanguinalis), foxtail, giant (giant foxtail, Setaria faberii), johnsongrass (Sorghum halepense), lambsquarters (Chenopodium album), morningglory (Ipomoea coccinea), nutsedge, yellow (yellow nutsedge, Cyperus esculentus), pigweed (Amaranthus retroflexus), ragweed (common ragweed, Ambrosia elatior), soybean (Glycine max), barnyardgrass (Echinochloa crus-galli), oilseed rape (Brassica napus), pigweed, palmer (palmer pigweed, Amaranthus palmeri), waterhemp (common waterhemp, Amaranthus rudis), velvetleaf (Abutilon theophrasti), kochia (Kochia scoparia), surinam grass (Brachiaria decumbens), nightshade (eastern black nightshade, Solanum ptycanthum), wild poinsettia (Euphorbia heterophylla), windgrass (Apera spica-venti), and oat, wild (wild oat Avena fatua), were planted into a blend of loam soil and sand or a silt loam soil and treated preemergence with test chemicals formulated in a non-phytotoxic solvent mixture which included a surfactant.
(§2) At the same time, plants selected from these crop and weed species and also chickweed (common chickweed, Stellaria media), buckwheat, wild (wild buckwheat, Polygonum convolvulus), wild mustard (Sinapis arvensis), field poppy (Papaver rhoeas), field violet (Viola arvensis), geranium, cutleaf (cutleaf geranium, Geranium dissectum), Canada thistle (Cirsium arvense), and speedwell (bird's-eye speedwell, Veronica persica), were planted in pots containing Sunshine Redi-Earth® planting medium comprising spaghnum peat moss, vermiculite, starter nutrients and dolomitic limestone and treated with postemergence applications of test chemicals formulated in the same manner. Plants ranged in height from 2 to 18 cm (1- to 4-leaf stage) for postemergence treatments. Treated plants and controls were maintained in a greenhouse for 13 to 15 d, after which time all species were compared to controls and visually evaluated. Plant response ratings, summarized in Table C, are based on a scale of 0 to 100 where 0 is no effect and 100 is complete control. A dash (-) response means no test result.

[2] = tested on: oilseed rape (Brassica napus); experiment: Test C postemergence, plant response rating; conditions: Brassica napus, post-emergence
Description: as §1, §2

kochia (Kochia scoparia) [3] = experiment: Test C postemergence, plant response rating; conditions: Bassia scoparia, post-emergence
Description: as §1, §2

[4] = tested on: morningglory (Ipomoea coccinea); experiment: Test C postemergence, plant response rating; conditions: Ipomoea, post-emergence
Description: as §1, §2

[5] = tested on: oat, wild (wild oat Avena fatua); experiment: Test C postemergence, plant response rating; conditions: Avena fatua, post-emergence
Description: as §1, §2

[6] = tested on: ryegrass, Italian (Italian ryegrass, Lolium multiflorum); experiment: Test C postemergence, plant response rating; conditions: Lolium multiflorum, post-emergence
Description: as §1, §2

[7] = tested on: lambsquarters (Chenopodium album); experiment: Test C postemergence, plant response rating; conditions: Chenopodium album, post-emergence
Description: as §1, §2

[8] = tested on: blackgrass (Alopecurus myosuroides); experiment: Test C postemergence, plant response rating; conditions: Alopecurus myosuroides, post-emergence
Description: as §1, §2

soybean (Glycine max) = experiment: Test C postemergence, plant response rating; conditions: Glycine max, post-emergence
Description: as §1, §2

[9] = tested on: wheat (winter wheat, Triticum aestivum); experiment: Test C postemergence, plant response rating; conditions: Triticum aestivum, post-emergence
Description: as §1, §2

[10] = tested on: foxtail, giant (giant foxtail, Setaria faberii); experiment: Test C postemergence, plant response rating; conditions: Setaria faberi, post-emergence
Description: as §1, §2

[11] = tested on: crabgrass, large (large crabgrass, Digitaria sanguinalis); experiment: Test C postemergence, plant response rating; conditions: Digitaria sanguinalis, post-emergence
Description: as §1, §2

[12] = tested on: chickweed (common chickweed, Stellaria media); experiment: Test C postemergence, plant response rating; conditions: Stellaria media, post-emergence
Description: as §1, §2

corn (Zea mays) = experiment: Test C postemergence, plant response rating; conditions: Zea mays, post-emergence
Description: as §1, §2

kochia (Kochia scoparia) [13] = experiment: Test A preemergence, visual injury rating
In short: (§3)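 Compounds in non-phytotoxic solvent with surfactant applied as soil spray preemergence, or postemergence to plants 2-10 cm at one- to two-leaf stage, in loam/sand. After approximately 10 days in greenhouse, injury rated visually versus untreated controls, 0 (no effect) to 100 (complete control).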

[14] = tested on: barnyardgrass (Echinochloa crus-galli); experiment: Test A preemergence, visual injury rating
In short: as §3

[15] = 62 g ai/ha, scale 0 to 100 (0 no effect, 100 complete control)
[16] = 125 g ai/ha, scale 0 to 100 (0 no effect, 100 complete control)
[17] = 31 g ai/ha, 0 to 100 scale, 0 no effect, 100 complete control

Compound: O=C(CCC(F)(F)F)c1c(Cl)cccc1Oc1ncc(Cl)cn1 [Compound 107, 1-[2-chloro-6-[(5-chloro-2-pyrimidinyl)oxy]phenyl]-4,4,4-trifluoro-1-butanone]
- pest or weed control at 16 g/ha ([1]; 16 g ai/ha, scale of 0 to 100): 5%
- pest or weed control at 31 g/ha ([1]; 31 g ai/ha, scale 0 to 100): 5%
- pest or weed control at 62 g/ha [1, 15]: 5%
- pest or weed control at 125 g/ha [1, 16]: 5%
- plant injury at 16 g/ha ([2]; 16 g ai/ha, scale of 0 to 100): 65%
- plant injury at 31 g/ha ([2]; 31 g ai/ha, scale 0 to 100): 80%
- plant injury at 62 g/ha [2, 15]: 95%
- plant injury at 125 g/ha [2, 16]: 98%
- pest or weed control at 16 g/ha (kochia (Kochia scoparia) [3]; 16 g ai/ha, scale of 0 to 100): 80%
- pest or weed control at 31 g/ha (kochia (Kochia scoparia) [3]; 31 g ai/ha, scale 0 to 100): 85%
- pest or weed control at 62 g/ha (kochia (Kochia scoparia) [3]; [15]): 95%
- pest or weed control at 125 g/ha (kochia (Kochia scoparia) [3]; [16]): 98%
- pest or weed control at 16 g/ha ([4]; 16 g ai/ha, scale of 0 to 100): 20%
- pest or weed control at 31 g/ha ([4]; 31 g ai/ha, scale 0 to 100): 60%
- pest or weed control at 62 g/ha [4, 15]: 80%
- pest or weed control at 125 g/ha [4, 16]: 95%
- pest or weed control at 16 g/ha ([5]; 16 g ai/ha, scale of 0 to 100): 5%
- pest or weed control at 31 g/ha ([5]; 31 g ai/ha, scale 0 to 100): 40%
- pest or weed control at 62 g/ha [5, 15]: 35%
- pest or weed control at 125 g/ha [5, 16]: 45%
- pest or weed control at 16 g/ha ([6]; 16 g ai/ha, scale of 0 to 100): 5%
- pest or weed control at 31 g/ha ([6]; 31 g ai/ha, scale 0 to 100): 35%
- pest or weed control at 62 g/ha [6, 15]: 20%
- pest or weed control at 125 g/ha [6, 16]: 50%
- pest or weed control at 16 g/ha ([7]; 16 g ai/ha, scale of 0 to 100): 80%
- pest or weed control at 31 g/ha ([7]; 31 g ai/ha, scale 0 to 100): 85%
- pest or weed control at 62 g/ha [7, 15]: 100%
- pest or weed control at 125 g/ha [7, 16]: 100%
- pest or weed control at 16 g/ha ([8]; 16 g ai/ha, scale 0 to 100): 5%
- pest or weed control at 31 g/ha ([8]; 31 g ai/ha, scale 0 to 100): 20%
- pest or weed control at 62 g/ha [8, 15]: 20%
- pest or weed control at 125 g/ha [8, 16]: 60%
- plant injury at 16 g/ha (soybean (Glycine max); 16 g ai/ha, scale of 0 to 100): 50%
- plant injury at 31 g/ha (soybean (Glycine max); 31 g ai/ha, scale 0 to 100): 40%
- plant injury at 62 g/ha (soybean (Glycine max); [15]): 95%
- plant injury at 125 g/ha (soybean (Glycine max); [16]): 95%
- plant injury at 16 g/ha ([9]; 16 g ai/ha, scale of 0 to 100): 5%
- plant injury at 31 g/ha ([9]; 31 g ai/ha, scale 0 to 100): 5%
- plant injury at 125 g/ha [9, 16]: 30%
- plant injury at 62 g/ha ([9]; rate not given, scale 0 to 100, read-out: Plant response rating, Wheat): 10%
- pest or weed control at 16 g/ha ([10]; 16 g ai/ha, scale of 0 to 100): 10%
- pest or weed control at 31 g/ha ([10]; 31 g ai/ha, scale 0 to 100): 10%
- pest or weed control at 62 g/ha [10, 15]: 20%
- pest or weed control at 125 g/ha [10, 16]: 25%
- pest or weed control at 16 g/ha ([11]; 16 g ai/ha, scale of 0 to 100): 10%
- pest or weed control at 31 g/ha ([11]; 31 g ai/ha, scale 0 to 100): 10%
- pest or weed control at 62 g/ha [11, 15]: 30%
- pest or weed control at 125 g/ha [11, 16]: 60%
- pest or weed control at 16 g/ha ([12]; 16 g ai/ha, scale of 0 to 100): 80%
- pest or weed control at 31 g/ha ([12]; 31 g ai/ha, scale 0 to 100): 90%
- pest or weed control at 62 g/ha [12, 15]: 98%
- pest or weed control at 125 g/ha [12, 16]: 100%
- Corn plant response rating (crop injury, 0 = no effect, 100 = complete kill) at 16 g/ha (corn (Zea mays); 16 g ai/ha, scale of 0 to 100): 10%
- Corn plant response rating (crop injury, 0 = no effect, 100 = complete kill) at 31 g/ha (corn (Zea mays); 31 g ai/ha, scale 0 to 100): 20%
- plant injury at 62 g/ha (corn (Zea mays); [15]): 20%
- plant injury at 125 g/ha (corn (Zea mays); [16]): 30%
- Plant response rating, Kochia (kochia (Kochia scoparia) [13]; [17]): 90
- Plant response rating, Kochia (kochia (Kochia scoparia) [13]; 125 g ai/ha, 0 to 100 scale (0 no effect, 100 complete control)): 100
- Plant response rating, Barnyardgrass [14, 17]: 90
- pest or weed control at 125 g/ha ([14]; Echinochloa crus-galli, pre-emergence, 240 h, 125 g ai/ha, 0 to 100 scale (0 no effect, 100 complete control), read-out: Barnyardgrass plant response rating): 100%
